Laboratory results from US20260226048A1, “MULTI-CYCLIC IRAK AND FLT3 INHIBITING COMPOUNDS AND USES THEREOF” (CHILDREN'S HOSPITAL MEDICAL CENTER, priority 2023, published 2026).
Where a chain is given by its changes, count along the chain named.

Columns and labels:
FLT3 = molecular target: T1, FLT3 (Homo sapiens, UniProt P36888); assay: DiscoverX KINOMEscan competition binding assay, FLT3; parameters: purchased Reaction Biology (RBC HotSpot); conditions: 11-point 3-fold dilution
T1 sequence (P36888 27-993): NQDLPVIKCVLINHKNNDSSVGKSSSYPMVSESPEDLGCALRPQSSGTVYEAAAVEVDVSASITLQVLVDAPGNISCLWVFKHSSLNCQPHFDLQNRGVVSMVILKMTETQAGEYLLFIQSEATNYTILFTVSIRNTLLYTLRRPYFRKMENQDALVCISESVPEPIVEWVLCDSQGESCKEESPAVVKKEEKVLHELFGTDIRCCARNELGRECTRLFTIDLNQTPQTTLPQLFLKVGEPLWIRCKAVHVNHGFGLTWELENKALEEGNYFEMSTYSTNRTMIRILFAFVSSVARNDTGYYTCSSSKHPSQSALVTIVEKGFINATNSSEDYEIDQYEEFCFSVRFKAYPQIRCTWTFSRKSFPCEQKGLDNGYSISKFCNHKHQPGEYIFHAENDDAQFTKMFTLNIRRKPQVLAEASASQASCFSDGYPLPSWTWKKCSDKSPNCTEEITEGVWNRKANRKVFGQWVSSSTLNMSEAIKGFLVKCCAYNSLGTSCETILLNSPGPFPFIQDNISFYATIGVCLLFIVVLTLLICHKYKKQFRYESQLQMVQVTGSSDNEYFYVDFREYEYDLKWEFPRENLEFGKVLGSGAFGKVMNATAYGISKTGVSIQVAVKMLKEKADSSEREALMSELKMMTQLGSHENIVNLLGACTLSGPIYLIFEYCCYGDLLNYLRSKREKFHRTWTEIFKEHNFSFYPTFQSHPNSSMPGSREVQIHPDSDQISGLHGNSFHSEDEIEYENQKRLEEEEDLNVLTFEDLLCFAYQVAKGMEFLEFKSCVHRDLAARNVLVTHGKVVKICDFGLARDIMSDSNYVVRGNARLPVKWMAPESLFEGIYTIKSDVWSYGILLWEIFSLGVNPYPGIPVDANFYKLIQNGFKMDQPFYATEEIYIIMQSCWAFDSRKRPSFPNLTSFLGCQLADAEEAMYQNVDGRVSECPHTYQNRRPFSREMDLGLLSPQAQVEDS
Text: (§1) […]. […] As a result, the data report thermodynamic interaction affinities (Kd values), rather than IC50 values that are dependent on ATP concentrations. The assay uses a DNA-tagged version of the protein kinase, and an immobilized ligand bound to a solid support. Compounds that directly or indirectly prevent kinase binding to the immobilized ligand reduce the amount of kinase captured on the solid support, which is detected using an ultra-sensitive qPCR method. Affinity constants reported from the assay have been reported to be independent of the immobilized ligand used that is coupled to the solid support (See supplemental information in Fabian, M. A. et. al., (2005) Nat. Biotechnol. 23, 329-336; Wodicka, L. M. et. al., (2010) Chem. Biol. 17, 1241-1249.)
(§2) Kinase-tagged T7 phage strains were prepared in an E. coli host derived from the BL21 strain. E. coli were grown to log-phase and infected with T7 phage and incubated with shaking at 32° C. until lysis. The lysates were centrifuged and filtered to remove cell debris. The remaining kinases were produced in HEK-293 cells and subsequently tagged with DNA for qPCR detection. Streptavidin-coated magnetic beads were treated with biotinylated small molecule ligands for 30 minutes at room temperature to generate affinity resins for kinase assays. The liganded beads were blocked with excess biotin and washed with blocking buffer (SeaBlock (Pierce), 1% BSA, 0.05% Tween 20, 1 mM DTT) to remove unbound ligand and to reduce non-specific binding. […] Test compounds were prepared as 111× stocks in 100% DMSO. Kds were determined using an 11-point 3-fold compound dilution series with three DMSO control points. All compounds for Kd measurements are distributed by acoustic transfer (non-contact dispensing) in 100% DMSO. The compounds were then diluted directly into the assays such that the final concentration of DMSO was 0.9%. All reactions were performed in polypropylene 384-well plates. Each was a final volume of 0.02 mL. […] The kinase concentration in the eluates was measured by qPCR.
(§3) Binding constants (Kds) were calculated with a standard dose-response curve using the Hill equation. The Hill Slope was set to −1. Curves were fitted using a non-linear least square fit with the Levenberg-Marquardt algorithm.

FLT3 K663Q = molecular target: T2, FLT3 K663Q (Homo sapiens, UniProt P36888, K663Q); assay: DiscoverX KINOMEscan competition binding assay, FLT3 K663Q; conditions: 11-point 3-fold dilution
T2 construct: purchased DiscoverX (KINOMEscan); host or cells: E. coli BL21-derived host (T7 phage) or HEK-293
T2 sequence (P36888 27-993 K663Q): T1 sequence (P36888 27-993) with K637Q
Text: as §1, §2, §3

SMILES: COc1cc2ncc(-c3nc(N[C@H]4CNCC[C@@H]4F)ncc3F)n2nc1C1CC1 [Compound 1a, 4-(6-cyclopropyl-7-methoxyimidazo[1,2-b]pyridazin-3-yl)-5-fluoro-N-((3S,4S)-4-fluoropiperidin-3-yl)pyrimidin-2-amine]
- Kd (FLT3): < 0.17 nM
- Kd (FLT3 K663Q): 0.27 nM

SMILES: FC(F)COc1cc2ncc(-c3ccnc(N[C@H]4CNCC[C@@H]4F)n3)n2nc1C1CC1 [Compound 4a, 4-(6-cyclopropyl-7-(2,2-difluoroethoxy)imidazo[1,2-b]pyridazin-3-yl)-N-((3 S,4S)-4-fluoropiperidin-3-yl)pyrimidin-2-amine]
- Kd (FLT3): < 0.17 nM
- Kd (FLT3 K663Q): 2.3 nM

SMILES: COc1cc2ncc(-c3nc(N[C@H]4CNCC[C@@H]4F)ncc3F)n2nc1C(C)(C)O [Compound 45a, 2-(3-(5-fluoro-2-(((3S,4S)-4-fluoropiperidin-3-yl)amino)pyrimidin-4-yl)-7-methoxyimidazo[1,2-b]pyridazin-6-yl)propan-2-ol]
- Kd (FLT3): 1.1 nM
- Kd (FLT3 K663Q): 3.5 nM

SMILES: CC(C)(O)c1ccc2ncc(-c3nc(N[C@H]4CNCC[C@@H]4F)ncc3F)n2c1 [Compound 46a, 2-(3-(5-fluoro-2-(((3S,4S)-4-fluoropiperidin-3-yl)amino)pyrimidin-4-yl)imidazo[1,2-a]pyridin-6-yl)propan-2-ol]
- Kd (FLT3): 1.2 nM
- Kd (FLT3 K663Q): 3.7 nM

SMILES: COc1cc2ncc(-c3nc(N[C@H]4CNCC[C@@H]4F)ncc3F)n2nc1C1COC1 [Compound 92a, 5-fluoro-N-((3S,4S)-4-fluoropiperidin-3-yl)-4-(7-methoxy-6-(oxetan-3-yl)imidazo[1,2-b]pyridazin-3-yl)pyrimidin-2-amine]
- Kd (FLT3): < 0.17 nM
- Kd (FLT3 K663Q): 0.49 nM

SMILES: CC(C)(O)c1cn2c(-c3nc(N[C@H]4CNCC[C@@H]4F)ncc3F)cnc2cn1 [Compound 100a, 2-(3-(5-fluoro-2-(((3S,4S)-4-fluoropiperidin-3-yl)amino)pyrimidin-4-yl)imidazo[1,2-a]pyrazin-6-yl)propan-2-ol]
- Kd (FLT3): 16 nM
- Kd (FLT3 K663Q): 30 nM

SMILES: COc1cc2ncc(-c3nc(N[C@H]4CNCC[C@@H]4F)ncc3F)n2nc1N1CCCS1(=O)=O [Compound 112a, 2-(3-(5-fluoro-2-(((3S,4S)-4-fluoropiperidin-3-yl)amino)pyrimidin-4-yl)-7-methoxyimidazo[1,2-b]pyridazin-6-yl)isothiazolidine 1,1-dioxide]
- Kd (FLT3): < 0.17 nM
- Kd (FLT3 K663Q): 0.31 nM
